Experiments:
bone marrow osteoclasts [1] = assay: Osteoclast survival assay; type: cell-based, mice; conditions: 10 μM Src inhibitor daily from day 7 for 48 hours, with MSP
Description: Bone marrow precursor cells were thawed and seeded at a density of 2×10^5 cells per well in a 24-well plate containing glass coverslips in α-MEM media containing 10% FBS and antibiotics. After adhering overnight, media was removed and media containing 33 ng/mL hM-CSF and 9 ng/mL muRANKL was added. Cells were allowed to differentiate for 7 days with media changed every 3 days. Coverslips were then imaged microscopically using phase contrast to determine osteoclast number in each well. To test survival, factor-containing media was removed and α-MEM media containing 10% FBS was added as well as MSP as indicated. Cells were cultured for an additional 48 hours, fixed with 10% NBF for 10 minutes and washed with 1×PBS. For TRAP fluorescent staining, the leukocyte acid phosphatase kit (Sigma, St. Louis, Mo.) was used according to the manufacturer's instructions, with the substitution of 200 μM ELF97 (Invitrogen, Waltham, Mass.) as a phosphatase substrate. Coverslips were incubated in TRAP solution for 15 minutes at 37 degrees, washed with 1×PBS and counterstained with DAPI. The number of multinucleated TRAP+ cells (containing 4 or more nuclei) within 5 representative fields were included for quantification. Experiments were performed in triplicate.

PyMT-MSP tumor cells = assay: Intratibial PyMT-MSP tumor-induced osteolysis; type: in vivo, mice
Source text: (§1) All procedures involving mice and experimental protocols were approved by the Institutional Animal Care and Use Committee (IACUC) of the University of Utah. The RonTK−/− mice which reside on the FVB background, were crossed with NOD.SCID mice for an immune-compromised mouse model. As a control, wild-type FVB mice were also crossed with NOD.SCID mice. The STK−/− mice, which are on a C57BL/6 background, were compared to wild-type C57BL/6 mice as controls. Mice for all experiments were 6 to 8 weeks of age. For intratibial injections, 1×10^5 (PyMTor DU4475) or 3×10^5 (MDA-MB-231) tumor cells were resuspended in 10 μL matrigel and injected into the right tibia of anesthetized female FVB (PyMT) or NOD.SCID mice carrying various alleles of RON. Osteolysis was assessed by X-ray radiography. Dissected hindlimbs from mice sacrificed at the final time point in each experiment were placed in the Kodak In-vivo Multispectral Imaging System FX and exposed to X-ray radiography at 35 kV for 100 sec. Excess tumor tissue was removed from the bones prior to X-ray. Osteolytic lesions were quantified using Image J software (NCBI). All images were compared to the contralateral leg as an internal control.
Hindlimb bones were excised from mice at the time of sacrifice and bones were fixed in 10% neutral-buffered formalin, decalcified in Formical-2000 (Decal Corporation, Tallman, N.Y.) for 8 days and embedded in paraffin for hematoxylin and eosin (H & E) or immunohistochemical staining. Osteoclast number was assessed as TRAP^+ multinucleated cells containing 4 or more nuclei and reported as TRAP^+ cells per field. Three sections per mouse and 5 fields per section were used for quantification with fields representing the entire length of the tibia. Tumor proliferation rate was reported as the number of cells which were positive for phospho-H3 staining compared to the number of unstained cells per field expressed as a percent. Three sections per mouse and 5 fields per section were used for quantification with analysis being restricted to within the bone marrow cavity. Immunohistochemical analysis was performed with heat-induced antigen retrieval in sodium-citrate buffer (Dako, Denmark). Primary antibodies used were anti-TRAP at 1:50 (Santa Cruz, sc-30833, Dallas, Tex.), anti-Ki67 at 1:100 (Santa Cruz, sc-12202S, Dallas, Tex.), anti-phosphoH3 at 1:100 (Cell Signaling, #9701, Beverly, Mass.), anti-NFATc1 at 1:50 (Santa Cruz, sc-13033, Dallas, Tex.), and anti-RON at 1:250 (Santa Cruz, sc-322, Dallas, Tex.). Bones from mice lacking RON were used as a negative control. Biotinylated secondary antibody was used with the EnVision^+ system HRP kit (Dako, Denmark) and nuclei counterstained with hematoxylin.
For in vivo experiments, the OSI-296 inhibitor was dissolved in 40% Trappsol with 0.01 M HCl, and mice were treated at a concentration of 200 mg/kg daily by oral gavage. Treatment began either 3 days after tumor cell injection for prophylactic experiments, or 3 weeks after tumor cell injection for therapeutic experiments. ASLAN002 was dissolved in 70% PEG400 with 1×PBS and mice were treated at a concentration of 50 mg/kg daily by oral gavage. muRANK-Fc was given at a concentration of 10 mg/kg every three days by intra-peritoneal injection. For the osteoporosis study, mice were treated beginning on the day after ovary removal. The treatment regimen for OSI-296 was 200 mg/kg every other day by oral gavage. ASLAN002 was administered at 50 mg/kg every other day by oral gavage. Treatment continued until the time of sacrifice at 28 days.

PyMT control tumor cells = assay: Intratibial PyMT control tumor-induced osteolysis; type: in vivo, mice; conditions: WT mice, treatment began 3 days post injection, sacrificed 42 days post injection
Source text: as §1
(§2) For in vivo experiments, the OSI-296 inhibitor was dissolved in 40% Trappsol with 0.01 M HCl, and mice were treated at a concentration of 200 mg/kg daily by oral gavage. […]

[2] = test system: MSP-overexpressing MDA-MB-231 cells; assay: Intratibial MSP-overexpressing MDA-MB-231 tumor-induced osteolysis; type: in vivo, NOD.SCID mice; conditions: treated 3 days post tumor cell injection, sacrificed 30 days
Source text: as §1, §2

bone marrow osteoclasts [3] = assay: Osteoclast resorption assay; type: cell-based, mice; conditions: WT osteoclasts, inhibitors 10 μM or muRANK-Fc 10 μg/mL daily day 9 to 12
Description: Bone marrow osteoclasts were generated from 6 to 8 week old WT and RonTK−/− mice. Briefly, bone marrow was isolated from hindlimb bones and plated in α-MEM media containing 10% heat-inactivated fetal bovine serum (FBS, Sigma, St. Louis, Mo.), 100 units/mL penicillin-streptomycin (Hyclone), and 33 ng/mL human macrophage colony-stimulating factor (hM-CSF) (PeproTech, Rocky Hill, N.J.) for 24 hours. Non-adherent cells were collected and frozen for later use. To assess resorption activity, bone marrow precursor cells were thawed and seeded at a density of 1×10^5 cells per well in BioCoat Osteologic slides (BD Biosciences, San Jose, Calif.) in α-MEM media containing 10% FBS and antibiotics. After adhering overnight, media was removed and media containing 33 ng/mL hM-CSF and 9 ng/mL muRANKL (R & D systems, Minneapolis, Minn.) was added. The medium was changed every 3 days depending on acidification, and the assay was terminated as indicated. Recombinant human MSP was prepared and added daily as indicated. Cells were removed with 6% bleach and slides were viewed microscopically using phase-contrast with 20× magnification. Osteolytic resorption area within 5 representative fields was determined using Image J software, experiments were performed in triplicate. […]

RON = RON (Homo sapiens, UniProt Q04912); conditions: from the cited IC50 values; cited from earlier work
Chain of RON (Q04912 25-1400): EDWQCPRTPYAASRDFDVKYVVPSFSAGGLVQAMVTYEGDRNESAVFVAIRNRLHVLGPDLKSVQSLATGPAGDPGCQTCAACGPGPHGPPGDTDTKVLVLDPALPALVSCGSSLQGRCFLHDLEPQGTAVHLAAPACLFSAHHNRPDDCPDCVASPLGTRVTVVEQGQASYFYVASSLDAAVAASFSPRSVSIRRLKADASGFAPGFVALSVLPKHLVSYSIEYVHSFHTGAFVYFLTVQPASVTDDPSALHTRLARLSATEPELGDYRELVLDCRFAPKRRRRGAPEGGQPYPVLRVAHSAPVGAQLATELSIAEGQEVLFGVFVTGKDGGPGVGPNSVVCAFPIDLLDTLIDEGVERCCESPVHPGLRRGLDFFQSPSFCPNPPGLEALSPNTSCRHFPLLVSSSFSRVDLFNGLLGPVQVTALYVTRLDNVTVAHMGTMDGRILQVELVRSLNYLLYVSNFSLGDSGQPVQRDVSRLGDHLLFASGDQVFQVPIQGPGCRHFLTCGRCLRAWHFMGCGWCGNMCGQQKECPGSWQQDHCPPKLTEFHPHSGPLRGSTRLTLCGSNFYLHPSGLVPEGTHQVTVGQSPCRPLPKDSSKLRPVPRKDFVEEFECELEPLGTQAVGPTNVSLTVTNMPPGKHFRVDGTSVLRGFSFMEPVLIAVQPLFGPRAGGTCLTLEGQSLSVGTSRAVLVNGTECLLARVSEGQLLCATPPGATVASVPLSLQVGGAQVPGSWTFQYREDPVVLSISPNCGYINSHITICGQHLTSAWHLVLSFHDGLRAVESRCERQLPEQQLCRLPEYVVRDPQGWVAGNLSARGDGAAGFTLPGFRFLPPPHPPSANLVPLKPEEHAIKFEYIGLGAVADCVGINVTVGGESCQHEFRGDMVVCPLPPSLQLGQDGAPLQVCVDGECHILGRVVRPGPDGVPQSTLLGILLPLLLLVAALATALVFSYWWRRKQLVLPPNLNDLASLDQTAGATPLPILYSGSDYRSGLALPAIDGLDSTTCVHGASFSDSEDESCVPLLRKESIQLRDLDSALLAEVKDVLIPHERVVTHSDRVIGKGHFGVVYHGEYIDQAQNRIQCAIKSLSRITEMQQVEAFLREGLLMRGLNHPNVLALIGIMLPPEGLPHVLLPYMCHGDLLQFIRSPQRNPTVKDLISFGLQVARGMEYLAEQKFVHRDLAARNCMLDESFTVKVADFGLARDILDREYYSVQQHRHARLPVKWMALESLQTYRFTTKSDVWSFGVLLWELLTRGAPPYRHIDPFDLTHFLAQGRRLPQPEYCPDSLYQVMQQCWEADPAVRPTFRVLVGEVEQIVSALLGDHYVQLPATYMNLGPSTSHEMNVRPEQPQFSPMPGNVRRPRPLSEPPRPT

Structure (SMILES) | MSP-mediated osteoclast survival (bone marrow osteoclasts [1]) | inhibition of osteolysis (PyMT-MSP tumor cells; PyMT-MSP tumors, treatment beginning three days after tumor injection, average) | TRAP+ osteoclasts in tumor-bearing bones (PyMT-MSP tumor cells; TRAP staining of bone sections) | PyMT-MSP tumor growth in the bone (PyMT-MSP tumor cells; caliper measurements) | PyMT-MSP tumor proliferation rate in the bone (PyMT-MSP tumor cells; percent cells positive for phospho-H3) | progression of existing tumor-induced bone loss (PyMT-MSP tumor cells; post osteolysis treatment, about three weeks after tumor injection) | osteolysis from PyMT control tumors (no MSP) (PyMT control tumor cells) | osteolysis from MSP-expressing MDA-MB-231 tumor cells [2] | MSP-induced increase in osteoclast resorption (resorption area) (bone marrow osteoclasts [3]) | selectivity between RON and Met (RON)
CN1CCN(CCOc2cc(OC3CCOCC3)c3c(Nc4c(Cl)ccc5c4OCO5)ncnc3c2)CC1 [AZD0530] | blocked MSP-mediated survival |  |  |  |  |  |  |  |  | 
C[C@@H](Oc1c(N)ncc2c(C3=CCN(C(N)=O)CC3)coc12)c1c(Cl)ccc(F)c1Cl [OSI-296] |  | 4-6 fold | no significant effect | reduced | reduced | prevent further tumor-induced bone loss | did not have an effect | reduce MSP-mediated osteolysis to levels seen in control tumor cells | dramatically reduced | more selective for Met
